Laboratory results as given in publication PMC7265341, “Quantifying CDK inhibitor selectivity in live cells” (Nature Communications, 2020).
Where two headings read alike, the source gives them in different places.

Tests used:
CDK2/Cyclin E1 = CDK2/Cyclin E1 (Homo sapiens, UniProt P24941); experiment: NanoBRET live-cell target engagement, CDK2-NanoLuc/Cyclin E1 in HEK-293; type: binding; conditions: read-out: Inhibition at 10µM (%), CDK2/E1
CDK3/Cyclin E1 = CDK3/Cyclin E1 (Homo sapiens, UniProt Q00526); experiment: NanoBRET live-cell target engagement, CDK3-NanoLuc/Cyclin E1 in HEK-293; type: binding; conditions: CDK3/E1, read-out: Inhibition at 10µM (%)
CDK12/Cyclin K = CDK12/Cyclin K (Homo sapiens, UniProt Q9NYV4); experiment: NanoBRET live-cell target engagement, CDK12-NanoLuc/Cyclin K in HEK-293; type: binding; conditions: CDK12/K, read-out: Inhibition at 10µM (%)
CDK12/Cyclin K, sequence (Q9NYV4 1-1481 isoform Q9NYV4-2): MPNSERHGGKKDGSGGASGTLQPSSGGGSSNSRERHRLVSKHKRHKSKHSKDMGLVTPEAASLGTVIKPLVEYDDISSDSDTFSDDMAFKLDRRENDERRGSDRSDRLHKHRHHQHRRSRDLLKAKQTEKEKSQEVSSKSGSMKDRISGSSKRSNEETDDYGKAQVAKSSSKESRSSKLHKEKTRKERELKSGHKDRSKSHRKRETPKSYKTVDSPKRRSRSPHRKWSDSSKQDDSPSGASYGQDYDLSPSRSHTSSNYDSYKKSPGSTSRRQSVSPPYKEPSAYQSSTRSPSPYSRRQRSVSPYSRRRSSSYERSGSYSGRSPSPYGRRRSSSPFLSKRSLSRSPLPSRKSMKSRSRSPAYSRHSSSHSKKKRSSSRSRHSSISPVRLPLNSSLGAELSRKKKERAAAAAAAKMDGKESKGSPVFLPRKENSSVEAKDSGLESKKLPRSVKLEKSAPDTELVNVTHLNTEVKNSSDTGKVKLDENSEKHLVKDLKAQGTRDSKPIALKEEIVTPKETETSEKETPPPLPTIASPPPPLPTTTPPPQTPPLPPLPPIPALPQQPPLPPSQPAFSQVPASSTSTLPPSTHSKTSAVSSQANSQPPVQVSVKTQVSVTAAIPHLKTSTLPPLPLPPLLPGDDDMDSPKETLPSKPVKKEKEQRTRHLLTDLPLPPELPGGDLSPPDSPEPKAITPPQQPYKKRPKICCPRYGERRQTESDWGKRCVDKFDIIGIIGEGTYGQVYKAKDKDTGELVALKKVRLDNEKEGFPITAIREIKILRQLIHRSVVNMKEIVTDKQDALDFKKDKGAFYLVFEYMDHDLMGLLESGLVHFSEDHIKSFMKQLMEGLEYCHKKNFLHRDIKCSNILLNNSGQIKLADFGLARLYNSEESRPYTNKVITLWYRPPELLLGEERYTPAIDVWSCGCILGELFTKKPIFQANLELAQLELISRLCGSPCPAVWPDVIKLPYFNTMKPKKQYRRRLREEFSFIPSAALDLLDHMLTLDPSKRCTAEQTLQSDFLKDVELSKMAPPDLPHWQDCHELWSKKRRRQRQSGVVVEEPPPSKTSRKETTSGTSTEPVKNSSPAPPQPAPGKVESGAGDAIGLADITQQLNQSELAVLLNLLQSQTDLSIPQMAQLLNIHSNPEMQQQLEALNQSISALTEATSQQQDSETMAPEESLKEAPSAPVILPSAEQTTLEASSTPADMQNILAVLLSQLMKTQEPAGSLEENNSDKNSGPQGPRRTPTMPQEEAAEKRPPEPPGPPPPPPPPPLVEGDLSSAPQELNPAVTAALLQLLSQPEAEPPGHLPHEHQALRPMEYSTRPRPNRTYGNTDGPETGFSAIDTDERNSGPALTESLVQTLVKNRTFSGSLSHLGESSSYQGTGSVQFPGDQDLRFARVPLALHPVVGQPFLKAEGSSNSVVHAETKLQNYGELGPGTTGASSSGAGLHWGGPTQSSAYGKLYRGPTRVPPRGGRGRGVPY
CDK12/Cyclin K, sequence (O75909 whole entry partner): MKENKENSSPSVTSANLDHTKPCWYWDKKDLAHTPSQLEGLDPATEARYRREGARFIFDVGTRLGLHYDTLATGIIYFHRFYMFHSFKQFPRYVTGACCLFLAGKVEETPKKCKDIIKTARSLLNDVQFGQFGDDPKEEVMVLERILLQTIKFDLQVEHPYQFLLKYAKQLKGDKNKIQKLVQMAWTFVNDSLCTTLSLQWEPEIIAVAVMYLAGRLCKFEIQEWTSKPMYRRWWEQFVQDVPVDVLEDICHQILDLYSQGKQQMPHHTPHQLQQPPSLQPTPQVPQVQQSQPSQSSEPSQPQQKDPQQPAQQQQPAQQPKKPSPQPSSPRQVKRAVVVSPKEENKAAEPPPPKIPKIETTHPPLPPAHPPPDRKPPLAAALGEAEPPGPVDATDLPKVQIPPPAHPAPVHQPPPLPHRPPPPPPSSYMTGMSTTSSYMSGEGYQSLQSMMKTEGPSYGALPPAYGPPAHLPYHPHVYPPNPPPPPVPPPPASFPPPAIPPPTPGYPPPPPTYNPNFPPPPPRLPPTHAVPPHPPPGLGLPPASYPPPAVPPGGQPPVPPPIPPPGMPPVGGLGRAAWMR

CDK16/Cyclin Y = CDK16/Cyclin Y (Homo sapiens, UniProt Q00536); experiment: NanoBRET live-cell target engagement, CDK16-NanoLuc/Cyclin Y in HEK-293; type: binding; conditions: CDK16/Y; for IC50: read-out: IC50; for inhibition at 10 µM: read-out: Inhibition at 10µM (%)
CDK4/Cyclin D1 = CDK4/Cyclin D1 (Homo sapiens, UniProt P11802); experiment: NanoBRET live-cell target engagement, NanoLuc-CDK4/Cyclin D1 in HEK-293; type: binding; conditions: CDK4/D1; for IC50: read-out: IC50; for inhibition at 10 µM: read-out: Inhibition at 10µM (%)
CDK1/Cyclin E1 = CDK1/Cyclin E1 (Homo sapiens, UniProt P06493); experiment: NanoBRET live-cell target engagement, CDK1-NanoLuc/Cyclin E1 in HEK-293; type: binding; conditions: CDK1/E1, read-out: Inhibition at 10µM (%)
CDK9/Cyclin K = CDK9/Cyclin K (Homo sapiens, UniProt P50750); experiment: NanoBRET live-cell target engagement, NanoLuc-CDK9/Cyclin K in HEK-293; type: binding; conditions: CDK9/K, read-out: Inhibition at 10µM (%)
CDK8/Cyclin C = CDK8/Cyclin C (Homo sapiens, UniProt P49336); experiment: NanoBRET live-cell target engagement, NanoLuc-CDK8/Cyclin C in HEK-293; type: binding; conditions: CDK8/C, read-out: Inhibition at 10µM (%)
CDK19/Cyclin C = CDK19/Cyclin C (Homo sapiens, UniProt Q9BWU1); experiment: NanoBRET live-cell target engagement, NanoLuc-CDK19/Cyclin C in HEK-293; conditions: read-out: Inhibition at 10µM (%), CDK19/C
CDK14/Cyclin Y = CDK14/Cyclin Y (Homo sapiens, UniProt O94921); experiment: NanoBRET live-cell target engagement, CDK14-NanoLuc/Cyclin Y in HEK-293; type: binding; conditions: CDK14/Y, read-out: Inhibition at 10µM (%)
CDK20/Cyclin H = CDK20/Cyclin H (Homo sapiens, UniProt Q8IZL9); experiment: NanoBRET live-cell target engagement, NanoLuc-CDK20/Cyclin H in HEK-293; type: binding; conditions: CDK20/H, read-out: Inhibition at 10µM (%)
CDK6/Cyclin D1 = CDK6/Cyclin D1 (Homo sapiens, UniProt Q00534); experiment: NanoBRET live-cell target engagement, NanoLuc-CDK6/Cyclin D1 in HEK-293; type: binding; conditions: CDK6/D1; for IC50: read-out: IC50; for inhibition at 10 µM: read-out: Inhibition at 10µM (%)
CDK5/CDK5R1 = CDK5/CDK5R1 (Homo sapiens, UniProt Q00535); experiment: NanoBRET live-cell target engagement, CDK5-NanoLuc/CDK5R1 in HEK-293; type: binding; conditions: CDK5/CDK5R1, read-out: Inhibition at 10µM (%)
CDK10/Cyclin L2 = CDK10/Cyclin L2 (Homo sapiens, UniProt Q15131); experiment: NanoBRET live-cell target engagement, CDK10-NanoLuc/Cyclin L2 in HEK-293; conditions: read-out: Inhibition at 10µM (%), CDK10/L2
CDK11B/Cyclin L2 = CDK11B/Cyclin L2 (Homo sapiens, UniProt P21127); experiment: NanoBRET live-cell target engagement, CDK11B-NanoLuc/Cyclin L2 in HEK-293; type: binding; conditions: CDK11b/L2, read-out: Inhibition at 10µM (%)
CDK15/Cyclin Y = CDK15/Cyclin Y (Homo sapiens, UniProt Q96Q40); experiment: NanoBRET live-cell target engagement, NanoLuc-CDK15/Cyclin Y in HEK-293; type: binding; conditions: CDK15/Y, read-out: Inhibition at 10µM (%)
CDK15/Cyclin Y, sequence (Q96Q40 whole entry): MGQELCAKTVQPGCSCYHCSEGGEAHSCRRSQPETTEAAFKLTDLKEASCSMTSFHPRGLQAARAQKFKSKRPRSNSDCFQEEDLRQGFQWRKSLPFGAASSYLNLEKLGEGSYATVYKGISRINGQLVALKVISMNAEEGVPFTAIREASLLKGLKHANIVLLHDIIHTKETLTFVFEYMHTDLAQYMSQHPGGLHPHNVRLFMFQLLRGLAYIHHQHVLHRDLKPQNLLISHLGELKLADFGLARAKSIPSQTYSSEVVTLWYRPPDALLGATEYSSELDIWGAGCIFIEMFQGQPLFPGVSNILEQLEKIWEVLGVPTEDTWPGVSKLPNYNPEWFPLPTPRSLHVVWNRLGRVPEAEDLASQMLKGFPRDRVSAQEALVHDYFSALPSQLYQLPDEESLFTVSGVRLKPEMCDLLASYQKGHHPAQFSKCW
CDK15/Cyclin Y, sequence (Q8ND76 whole entry partner): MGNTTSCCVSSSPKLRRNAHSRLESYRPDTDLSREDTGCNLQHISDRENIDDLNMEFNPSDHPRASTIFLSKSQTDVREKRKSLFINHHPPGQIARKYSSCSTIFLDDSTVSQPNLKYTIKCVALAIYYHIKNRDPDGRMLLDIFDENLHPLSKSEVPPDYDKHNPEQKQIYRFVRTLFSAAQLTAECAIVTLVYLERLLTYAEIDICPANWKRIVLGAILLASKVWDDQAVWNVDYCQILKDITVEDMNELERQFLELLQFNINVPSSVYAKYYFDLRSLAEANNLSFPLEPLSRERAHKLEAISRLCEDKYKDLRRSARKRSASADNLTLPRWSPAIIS

CDK18/Cyclin Y = CDK18/Cyclin Y (Homo sapiens, UniProt Q07002); experiment: NanoBRET live-cell target engagement, CDK18-NanoLuc/Cyclin Y in HEK-293; type: binding; conditions: CDK18/Y, read-out: Inhibition at 10µM (%)
CDK17/Cyclin Y = CDK17/Cyclin Y (Homo sapiens, UniProt Q00537); experiment: NanoBRET live-cell target engagement, CDK17-NanoLuc/Cyclin Y in HEK-293; type: binding; conditions: CDK17/Y, read-out: Inhibition at 10µM (%)
CDK17/Cyclin Y, sequence (Q00537 whole entry): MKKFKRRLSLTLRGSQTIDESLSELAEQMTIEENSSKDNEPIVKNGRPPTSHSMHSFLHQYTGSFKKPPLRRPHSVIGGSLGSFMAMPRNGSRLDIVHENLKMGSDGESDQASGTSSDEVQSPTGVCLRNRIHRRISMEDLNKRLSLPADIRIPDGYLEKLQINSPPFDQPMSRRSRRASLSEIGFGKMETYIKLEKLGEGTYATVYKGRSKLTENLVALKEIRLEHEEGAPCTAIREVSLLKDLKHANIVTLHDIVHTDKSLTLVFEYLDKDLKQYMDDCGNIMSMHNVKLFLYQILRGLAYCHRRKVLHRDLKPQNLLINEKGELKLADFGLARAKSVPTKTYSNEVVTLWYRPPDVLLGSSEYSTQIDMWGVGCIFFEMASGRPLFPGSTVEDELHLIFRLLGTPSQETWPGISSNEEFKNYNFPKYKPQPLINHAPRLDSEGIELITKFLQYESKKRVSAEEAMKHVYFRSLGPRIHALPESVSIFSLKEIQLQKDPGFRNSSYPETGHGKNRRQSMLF
CDK17/Cyclin Y, sequence (Q8ND76 whole entry partner): as the sequence (Q8ND76 whole entry partner) above

CDK7 = CDK7 (Homo sapiens, UniProt P50613); experiment: NanoBRET live-cell target engagement, NanoLuc-CDK7 in HEK-293; type: binding; conditions: CDK7; for IC50: read-out: IC50; for inhibition at 10 µM: read-out: Inhibition at 10µM (%)
CDK13/Cyclin K = CDK13/Cyclin K (Homo sapiens, UniProt Q14004); experiment: NanoBRET live-cell target engagement, CDK13-NanoLuc/Cyclin K in HEK-293; type: binding; conditions: CDK13/K, read-out: Inhibition at 10µM (%)
CDK13/Cyclin K, sequence (O75909 whole entry): as the sequence (O75909 whole entry partner) above
CDK13/Cyclin K, sequence (Q14004 other isoform, or with tags, fused parts or gaps): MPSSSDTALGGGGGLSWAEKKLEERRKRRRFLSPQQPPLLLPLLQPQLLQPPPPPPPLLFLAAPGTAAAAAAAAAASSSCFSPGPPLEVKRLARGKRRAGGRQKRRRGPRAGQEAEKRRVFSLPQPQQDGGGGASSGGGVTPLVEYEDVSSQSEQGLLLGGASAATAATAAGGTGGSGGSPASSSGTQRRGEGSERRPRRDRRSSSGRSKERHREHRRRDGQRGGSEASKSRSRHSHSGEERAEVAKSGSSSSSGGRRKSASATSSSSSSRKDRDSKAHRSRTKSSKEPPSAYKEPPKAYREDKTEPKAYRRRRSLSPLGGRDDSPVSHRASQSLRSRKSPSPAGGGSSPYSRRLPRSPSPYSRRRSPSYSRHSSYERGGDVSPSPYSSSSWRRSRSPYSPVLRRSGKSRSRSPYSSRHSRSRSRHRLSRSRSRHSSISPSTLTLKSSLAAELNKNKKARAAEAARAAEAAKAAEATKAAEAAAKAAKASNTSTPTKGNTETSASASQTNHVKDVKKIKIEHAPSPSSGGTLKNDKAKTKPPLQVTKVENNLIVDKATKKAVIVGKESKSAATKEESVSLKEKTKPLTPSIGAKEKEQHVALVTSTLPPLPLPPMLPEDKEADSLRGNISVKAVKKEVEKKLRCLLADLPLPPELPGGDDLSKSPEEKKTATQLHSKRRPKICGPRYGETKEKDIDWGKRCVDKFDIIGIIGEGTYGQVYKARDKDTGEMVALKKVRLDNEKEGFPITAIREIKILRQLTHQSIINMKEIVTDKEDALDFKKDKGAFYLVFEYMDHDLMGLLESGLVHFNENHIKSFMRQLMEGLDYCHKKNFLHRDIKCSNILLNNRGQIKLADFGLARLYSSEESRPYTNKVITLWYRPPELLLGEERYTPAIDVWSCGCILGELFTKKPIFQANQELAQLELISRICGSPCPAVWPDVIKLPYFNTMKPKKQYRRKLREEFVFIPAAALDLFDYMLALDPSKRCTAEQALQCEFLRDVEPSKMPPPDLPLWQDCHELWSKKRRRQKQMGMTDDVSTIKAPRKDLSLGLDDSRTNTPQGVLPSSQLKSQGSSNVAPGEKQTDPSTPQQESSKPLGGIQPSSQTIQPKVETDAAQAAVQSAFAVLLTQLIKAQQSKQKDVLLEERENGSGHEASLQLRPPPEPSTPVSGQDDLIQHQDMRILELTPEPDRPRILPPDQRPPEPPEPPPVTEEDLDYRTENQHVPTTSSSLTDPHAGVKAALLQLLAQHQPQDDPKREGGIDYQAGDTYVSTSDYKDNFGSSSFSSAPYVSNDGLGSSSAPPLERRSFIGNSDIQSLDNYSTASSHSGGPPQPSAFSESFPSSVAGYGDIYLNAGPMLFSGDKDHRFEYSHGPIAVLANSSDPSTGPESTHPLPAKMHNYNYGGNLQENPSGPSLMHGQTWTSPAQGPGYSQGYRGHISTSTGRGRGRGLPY

N#CCNC(=O)c1ccc(-c2ccnc(Nc3ccc(N4CCOCC4)cc3)n2)cc1 [Momelotinib]
inhibition at 10 µM (CDK2/Cyclin E1; average): 17.7%
inhibition at 10 µM (CDK2/Cyclin E1; experiment 1): 12.1%
inhibition at 10 µM (CDK2/Cyclin E1; experiment 2): 23.4%
inhibition at 10 µM (CDK3/Cyclin E1; average): 28.6%
inhibition at 10 µM (CDK3/Cyclin E1; experiment 1): 27.5%
inhibition at 10 µM (CDK3/Cyclin E1; experiment 2): 29.8%
inhibition at 10 µM (CDK12/Cyclin K; average): -8.8%
inhibition at 10 µM (CDK12/Cyclin K; experiment 1): 5.9%
inhibition at 10 µM (CDK12/Cyclin K; experiment 2): -23.5%
IC50 (CDK16/Cyclin Y; average (± SEM where n=3)): 450 nM
IC50 (CDK16/Cyclin Y; experiment 1): 177 nM
inhibition at 10 µM (CDK16/Cyclin Y; experiment 1): 31.8%
IC50 (CDK16/Cyclin Y; experiment 2): 730 nM
inhibition at 10 µM (CDK16/Cyclin Y; experiment 2): 64.3%
IC50 (CDK4/Cyclin D1; average (± SEM where n=3)): 650 nM
inhibition at 10 µM (CDK4/Cyclin D1; average): 45.1%
IC50 (CDK4/Cyclin D1; experiment 1): 561 nM
inhibition at 10 µM (CDK4/Cyclin D1; experiment 1): 53.4%
IC50 (CDK4/Cyclin D1; experiment 2): 746 nM
inhibition at 10 µM (CDK4/Cyclin D1; experiment 2): 36.9%
inhibition at 10 µM (CDK1/Cyclin E1; average): 20%
inhibition at 10 µM (CDK1/Cyclin E1; experiment 1): 32.3%
inhibition at 10 µM (CDK1/Cyclin E1; experiment 2): 7.8%
inhibition at 10 µM (CDK9/Cyclin K; average): 29.7%
inhibition at 10 µM (CDK9/Cyclin K; experiment 1): 29.8%
inhibition at 10 µM (CDK9/Cyclin K; experiment 2): 29.7%
inhibition at 10 µM (CDK8/Cyclin C; average): 2.5%
inhibition at 10 µM (CDK8/Cyclin C; experiment 1): 15.9%
inhibition at 10 µM (CDK8/Cyclin C; experiment 2): -10.8%
inhibition at 10 µM (CDK19/Cyclin C; average): 6.1%
inhibition at 10 µM (CDK19/Cyclin C; experiment 1): 10.6%
inhibition at 10 µM (CDK19/Cyclin C; experiment 2): 1.6%
inhibition at 10 µM (CDK14/Cyclin Y; average): 16.5%
inhibition at 10 µM (CDK14/Cyclin Y; experiment 1): 15.4%
inhibition at 10 µM (CDK14/Cyclin Y; experiment 2): 17.7%
inhibition at 10 µM (CDK20/Cyclin H; experiment 1): 10.6%
inhibition at 10 µM (CDK20/Cyclin H; experiment 2): -4.4%
IC50 (CDK6/Cyclin D1; average (± SEM where n=3)): 320 nM
inhibition at 10 µM (CDK6/Cyclin D1; average): 50.9%
IC50 (CDK6/Cyclin D1; experiment 1): 318 nM
inhibition at 10 µM (CDK6/Cyclin D1; experiment 1): 50.7%
IC50 (CDK6/Cyclin D1; experiment 2): 314 nM
inhibition at 10 µM (CDK6/Cyclin D1; experiment 2): 51.1%
inhibition at 10 µM (CDK5/CDK5R1; experiment 1): 7.6%
inhibition at 10 µM (CDK5/CDK5R1; experiment 2): 10%
inhibition at 10 µM (CDK10/Cyclin L2; average): 16.4%
inhibition at 10 µM (CDK10/Cyclin L2; experiment 1): 15.4%
inhibition at 10 µM (CDK10/Cyclin L2; experiment 2): 17.3%
inhibition at 10 µM (CDK11B/Cyclin L2; average): 52.5%
inhibition at 10 µM (CDK11B/Cyclin L2; experiment 1): 32.8%
inhibition at 10 µM (CDK11B/Cyclin L2; experiment 2): 72.2%
inhibition at 10 µM (CDK15/Cyclin Y; average): 8.1%
inhibition at 10 µM (CDK15/Cyclin Y; experiment 1): 12.2%
inhibition at 10 µM (CDK15/Cyclin Y; experiment 2): 4%
inhibition at 10 µM (CDK18/Cyclin Y; average): 18.4%
inhibition at 10 µM (CDK18/Cyclin Y; experiment 1): 14.9%
inhibition at 10 µM (CDK18/Cyclin Y; experiment 2): 21.8%
inhibition at 10 µM (CDK17/Cyclin Y; average): 43.1%
inhibition at 10 µM (CDK17/Cyclin Y; experiment 1): 26.9%
inhibition at 10 µM (CDK17/Cyclin Y; experiment 2): 59.3%
IC50 (CDK7; average (± SEM where n=3)): 820 nM
inhibition at 10 µM (CDK7; average): 50.4%
IC50 (CDK7; experiment 1): 760 nM
inhibition at 10 µM (CDK7; experiment 1): 28.7%
IC50 (CDK7; experiment 2): 880 nM
inhibition at 10 µM (CDK7; experiment 2): 72.1%
inhibition at 10 µM (CDK13/Cyclin K; average): 3.2%
inhibition at 10 µM (CDK13/Cyclin K; experiment 1): 4.9%
inhibition at 10 µM (CDK13/Cyclin K; experiment 2): 1.4%
